Assay type in all cases: cell-based
Experiment [1] concerns the target T1, human transporter OATP1B3 (Homo sapiens, UniProt Q9NPD5).
T1 construct: expressed in transfected cells; host or cells: MDCK-II
T1 sequence (Q9NPD5 1-702): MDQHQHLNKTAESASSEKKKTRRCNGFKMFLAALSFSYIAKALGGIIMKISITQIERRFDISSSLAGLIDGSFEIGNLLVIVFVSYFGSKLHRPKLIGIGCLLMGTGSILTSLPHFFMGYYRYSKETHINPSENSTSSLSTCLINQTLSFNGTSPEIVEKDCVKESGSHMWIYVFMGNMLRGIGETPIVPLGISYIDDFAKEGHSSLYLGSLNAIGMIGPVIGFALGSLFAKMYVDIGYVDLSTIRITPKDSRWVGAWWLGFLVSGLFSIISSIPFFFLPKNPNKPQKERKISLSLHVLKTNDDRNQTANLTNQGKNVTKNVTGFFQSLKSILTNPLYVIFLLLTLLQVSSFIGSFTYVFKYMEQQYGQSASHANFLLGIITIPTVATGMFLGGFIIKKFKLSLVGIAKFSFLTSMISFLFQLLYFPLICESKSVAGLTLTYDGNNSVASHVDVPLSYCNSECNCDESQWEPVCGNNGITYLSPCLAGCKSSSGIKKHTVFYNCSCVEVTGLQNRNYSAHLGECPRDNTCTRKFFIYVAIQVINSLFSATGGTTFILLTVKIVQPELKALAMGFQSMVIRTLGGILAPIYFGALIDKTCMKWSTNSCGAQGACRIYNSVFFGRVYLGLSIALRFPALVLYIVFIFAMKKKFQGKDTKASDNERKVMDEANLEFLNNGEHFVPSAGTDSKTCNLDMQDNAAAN
Nature of the experiment: In vitro ion transport assay 1, OATP1B3. The following applies: probe substrate 2 μM [3H]-CCK-8. The protocol: (§1) Compound 1 was studied in the concentration range of 0.1-100 μM for its potency against transport mediated by various transporter proteins. [table]

The next experiment deals with T2, human transporter OCT2 (Homo sapiens, UniProt O15244).
T2 construct: expressed in transfected cells; host or cells: MDCK-II
T2 sequence (O15244 1-555): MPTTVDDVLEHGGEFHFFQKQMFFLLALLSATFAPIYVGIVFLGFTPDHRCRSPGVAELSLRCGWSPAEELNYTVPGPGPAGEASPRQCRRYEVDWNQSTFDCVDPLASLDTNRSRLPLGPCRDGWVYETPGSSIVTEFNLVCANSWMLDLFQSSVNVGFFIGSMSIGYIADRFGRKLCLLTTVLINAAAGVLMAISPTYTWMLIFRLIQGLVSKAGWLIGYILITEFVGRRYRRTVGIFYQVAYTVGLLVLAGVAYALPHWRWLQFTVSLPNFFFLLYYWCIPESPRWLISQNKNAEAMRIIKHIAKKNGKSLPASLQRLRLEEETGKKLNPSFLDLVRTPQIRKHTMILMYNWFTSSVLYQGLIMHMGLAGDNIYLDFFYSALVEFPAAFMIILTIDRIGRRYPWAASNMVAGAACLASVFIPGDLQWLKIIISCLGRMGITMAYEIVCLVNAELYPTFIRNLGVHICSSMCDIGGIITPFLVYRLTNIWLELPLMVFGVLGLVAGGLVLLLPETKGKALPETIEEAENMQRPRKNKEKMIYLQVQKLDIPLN
Kind of experiment: In vitro ion transport assay 1, OCT2. The following applies: probe substrate 10 μM [14C]-metformin. How it is done:
as §1

The target in a further experiment is T3, human transporter OAT3 (Homo sapiens, UniProt Q8TCC7).
T3 construct: expressed in transfected cells; host or cells: MDCK-II
T3 sequence (Q8TCC7 1-542): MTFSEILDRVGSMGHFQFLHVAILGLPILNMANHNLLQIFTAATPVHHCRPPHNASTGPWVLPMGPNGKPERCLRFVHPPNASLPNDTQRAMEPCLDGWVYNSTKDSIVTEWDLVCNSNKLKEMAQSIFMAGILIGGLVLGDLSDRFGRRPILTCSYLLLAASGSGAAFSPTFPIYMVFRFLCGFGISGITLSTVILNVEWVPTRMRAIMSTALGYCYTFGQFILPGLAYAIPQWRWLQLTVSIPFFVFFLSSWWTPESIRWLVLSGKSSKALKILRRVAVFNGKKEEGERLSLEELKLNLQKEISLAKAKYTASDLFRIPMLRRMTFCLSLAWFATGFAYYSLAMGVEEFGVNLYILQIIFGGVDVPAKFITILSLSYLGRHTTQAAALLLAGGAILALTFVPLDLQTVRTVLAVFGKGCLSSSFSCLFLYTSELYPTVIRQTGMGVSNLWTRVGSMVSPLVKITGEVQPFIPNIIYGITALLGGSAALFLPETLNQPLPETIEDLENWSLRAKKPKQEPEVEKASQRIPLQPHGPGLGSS
Nature of the experiment: In vitro ion transport assay 1, OAT3-mediated uptake in MDCK-II cells. The protocol: To determine the effect of the ion transporter inhibitors on the uptake activity of solute carrier (SLC) ion transporter proteins such as OAT1 and OAT3, an ion transport assay utilizing a polarized monolayer of MDCK-II cells grown on permeable supports was used. The MDCK-II cells were treated to express the transporter of interest (e.g., OAT3 or OAT 1) or were treated with a control vector. 96-well culture plates with both donor and receiver cells containing a monolayer of MDCK-II cells were maintained at 37° C. in 5% CO2 atmosphere. Radio-labeled para-aminohippurate ([3H]-PAH) was used as a substrate for measuring OAT1 and OAT3 mediated transport, where the transport of the substrate was determined by radiometric detection. OAT1-mediated transport was assayed using 2 μM of [3H]-PAH; OAT3-mediated transport was assayed using 10 μM of [3H]-PAH. The probe substrate for OAT1 was 2 μM [3H]-p-aminohippurate. The probe substrate for OAT3 was 10 μM [3H]p-aminohippurate. The reference inhibitor for both assays was 100 μM probenecid. Following pre incubation of the transfected MDCK-II cells in HBSS, [3H]-PAH was added at the concentrations described above. Wells were then treated with either reference inhibitor probeneic acid or with the test compound. Cells transfected with empty vector served as an additional control. […]

Molecules are shown by their SMILES. Where “and” joins values, the source holds several entries; their conditions need not be identical. Equal values may be shown once. Some results are limits rather than exact numbers.

In general, IC50 refers to the concentration that gives 50% inhibition. A lower IC50 goes with higher potency. `O=S(=O)(c1ccc(-n2cn[nH]c2=S)cc1)c1ccc(Cl)c(C(F)(F)F)c1` [Compound 1, 4-(4-((4-chloro-3-(trifluoromethyl)phenyl)sulfonyl)phenyl)-2,4-dihydro-3H-1,2,4-triazole-3-thione]: the IC50 in experiment [1] is 51.2 µM; on human transporter OCT2, more than 100 µM; on human transporter OAT3 (assay 1, probe substrate 10 μM [3H]-p-aminohippurate, MDCK-II cells), 0.62 µM and 0.622 µM. Moreover, the “potency against OAT3 compared with potency against OAT1” value at human transporter OAT3 (OAT3 vs OAT1, [3H]-PAH uptake) is listed as “about 20 fold”.
